Reference: US5321030A, “Creatine analogs having antiviral activity” (priority 1991, dated 1994)
In brackets after ≈: the same amount, converted by molar mass. Where two headings read alike, the source gives them in different places.

What was measured:
DU 145 cells = test: Drug cytotoxicity in CPE assay, DU 145 cells; conditions: 10 mg/ml, 0 PFUs
in vitro [1] = conditions: guinea pig, gpe cells
creatine kinase [2] = molecular target: T1, creatine kinase (Oryctolagus cuniculus, UniProt P00563); conditions: cited from earlier work
[3] = test system: herpes simplex virus type 2 (HSV-2), strain E194; test: HSV-2 vaginitis in mice; type: in vivo, Swiss Webster female mice
[4] = test system: Parainfluenza Type 3 (PIV-3), strain C243; test: CPE-reduction assay, parainfluenza type 3 in HEp-2 cells; type: cell-based
[5] = Phosphorylation of cyclocreatine in cultured cells
[6] = Cytotoxicity in plaque reduction assay, CV-1 cells; type: cell-based, African Green Monkey; conditions: monkey, Table 9B, read-out: CD50 (the source's name)
creatine kinase [7] = molecular target: T1, creatine kinase; test: Phosphorylation by creatine kinase, coupled assay with pyruvate kinase and LDH; type: biochemical; conditions: 40 mM
Protocol: Compound 5/6 (AM 361), where R=CH3, was prepared as described above and assayed for phosphorylation by creatine kinase in a coupled assay with pyruvate kinase and lactate dehydrogenase (LDH) as described (Bergmeyer, H. U., ed. (1974), In: Methods of Enzymatic Analysis, Second English Edition, Volume 4, (Verlag Chemie Weinheim and Academic Press, Inc.: New York, London) pp. 1772-1779). Each compound listed in Table 11 below was tested at a concentration of 40 mM. Compound 5/6 (AM 361) was slowly phosphorylated.

in vitro [8] = conditions: monkey, vero cells
HSV-1 = test: Plaque assay, plaquing efficiency of HSV-1 in serum-starved Vero cells; type: cell-based, Herpes Simplex Type I (HSV-1)
Protocol: Plaque assays were performed on confluent, serum-starved monolayers of Vero cells in 100 mm dishes (Corning). Growth medium was removed by aspiration and 10 ml of low serum media was added. Monolayers were grown in this medium for 5 days. […] After incubation, the inoculum was removed by aspiration and replaced with 2 ml of agarose-medium maintained at 42° C. The agarose-medium overlay contained a fresh 1:1 mixture of: […] A plaque assay was used to confirm the antiviral activity of cyclocreatine detected in the cytopathogenicity studies described above. Vero cells were grown in 100 mm dishes and were serum-starved. Each dish, with the exception of uninfected controls, was inoculated with HSV-1 virus and incubated with various concentrations of cyclocreatine until plaques appeared in the plates exposed to virus alone.

[9] = newly hatched chicks, 1% in diet, with antibiotics; cited from earlier work
HCMV, strain AD-169 = test: Plaque reduction assay, HCMV strain AD-169; type: cell-based, Human Cytomegalovirus; set-up: TI50 (CD50 ÷ ED50): unit not given here; conditions: for EC50: read-out: ED50 (the source's name)

T1 sequence (P00563 whole entry): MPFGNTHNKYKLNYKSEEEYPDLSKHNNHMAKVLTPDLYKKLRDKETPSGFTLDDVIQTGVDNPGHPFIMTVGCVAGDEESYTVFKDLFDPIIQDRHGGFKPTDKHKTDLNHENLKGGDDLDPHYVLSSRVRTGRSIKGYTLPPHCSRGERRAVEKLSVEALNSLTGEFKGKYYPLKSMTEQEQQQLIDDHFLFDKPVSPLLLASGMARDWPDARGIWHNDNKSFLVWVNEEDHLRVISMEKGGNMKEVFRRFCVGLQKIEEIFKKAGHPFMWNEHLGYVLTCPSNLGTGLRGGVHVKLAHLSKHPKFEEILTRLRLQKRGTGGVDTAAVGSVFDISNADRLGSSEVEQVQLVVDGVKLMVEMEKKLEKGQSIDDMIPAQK

NC1=NCCN1CC(=O)O [cyclocreatine, 1-carboxymethyl-2-iminoimidazolidine]
cytotoxicity (DU 145 cells): some cytotoxicity
CC50 (in vitro [1]): > 10000 µg/mL
Vmax/Km ratio relative to creatine (creatine kinase [2]; forward reaction in vitro): approximately one-fifth
initial rate of phosphorylation by creatine kinase, % of that of creatine (creatine kinase [2]; in vitro, forward reaction): 31%
Vmax, % of that of creatine (creatine kinase [2]; measured at 1° C.): 90%
Ki (creatine kinase [2]; reverse reaction at 1° C., read-out: Ki, competitive inhibitor of P-creatine): 44 mM
antiviral effect in vaginitis model ([3]; 1% dietary): comparable to that achieved by acyclovir at 200 mg/kg, 100 mg/kg or 50 mg/kg
average lesion score ([3]; 1% in chow, Grand Ave. (Days 3-14)): 0.8 ± 0.2
average lesion score ([3]; 1% in chow, day 3): 0.2 ± 0.2
average lesion score ([3]; 1% in chow, day 4): 0.5 ± 0.7
average lesion score ([3]; 1% in chow, day 5): 0.9 ± 1.3
average lesion score ([3]; 1% in chow, day 6): 0.9 ± 1.3
average lesion score ([3]; 1% in chow, day 7): 0.8 ± 1.4
average lesion score ([3]; 1% in chow, day 8): 0.8 ± 1.4
average lesion score ([3]; 1% in chow, day 9): 1.0 ± 1.3
average lesion score ([3]; 1% in chow, day 10): 1.1 ± 1.3
average lesion score ([3]; 1% in chow, day 11): 1.0 ± 1.3
average lesion score ([3]; 1% in chow, day 12): 0.9 ± 1.3
average lesion score ([3]; 1% in chow, day 13): 0.9 ± 1.4
average lesion score ([3]; 1% in chow, day 14): 0.7 ± 1.4
activity in vaginitis model ([3]; 5% and […] cream topical): inactive
average lesion score ([3]; 5% cream topical, Grand Ave. (Days 3-14)): 2.3 ± 1.1
average lesion score ([3]; 5% cream topical, day 3): 0.3 ± 0.3
average lesion score ([3]; 5% cream topical, day 4): 0.4 ± 0.4
average lesion score ([3]; 5% cream topical, day 5): 1.5 ± 1.1
average lesion score ([3]; 5% cream topical, day 6): 2.1 ± 1.6
average lesion score ([3]; 5% cream topical, day 7): 2.0 ± 1.3
average lesion score ([3]; 5% cream topical, day 8): 2.8 ± 1.8
average lesion score ([3]; 5% cream topical, day 9): 3.2 ± 1.6
average lesion score ([3]; 5% cream topical, day 10): 3.2 ± 1.5
average lesion score ([3]; 5% cream topical, day 11): 3.1 ± 1.5
average lesion score ([3]; 5% cream topical, day 12): 3.0 ± 1.5
average lesion score ([3]; 5% cream topical, day 13): 3.0 ± 1.5
average lesion score ([3]; 5% cream topical, day 14): 3.0 ± 1.5
survival ([3]; 10% cream topical (16% in the placebo group)): 40%
effect on average lesion score ([3]; 10% cream topical, FIG. 10): slightly reduces the average lesion score
average lesion score ([3]; 10% cream topical, Grand Ave. (Days 3-14)): 1.6 ± 0.8
average lesion score ([3]; 10% cream topical, day 3): 0.2 ± 0.2
average lesion score ([3]; 10% cream topical, day 4): 0.1 ± 0.2
average lesion score ([3]; 10% cream topical, day 5): 0.9 ± 1.2
average lesion score ([3]; 10% cream topical, day 6): 1.4 ± 1.9
average lesion score ([3]; 10% cream topical, day 7): 1.6 ± 1.9
average lesion score ([3]; 10% cream topical, day 8): 2.0 ± 2.0
average lesion score ([3]; 10% cream topical, day 9): 2.2 ± 1.9
average lesion score ([3]; 10% cream topical, day 10): 2.2 ± 1.9
average lesion score ([3]; 10% cream topical, day 11): 2.1 ± 1.9
average lesion score ([3]; 10% cream topical, day 12): 2.0 ± 1.9
average lesion score ([3]; 10% cream topical, day 13): 2.0 ± 1.9
average lesion score ([3]; 10% cream topical, day 14): 2.0 ± 1.9
average lesion score ([3]; […] cream topical, Grand Ave. (Days 3-14)): 2.0 ± 0.9
average lesion score ([3]; […] cream topical, day 3): 0.2 ± 0.2
average lesion score ([3]; […] cream topical, day 4): 0.4 ± 0.6
average lesion score ([3]; […] cream topical, day 5): 1.2 ± 1.3
average lesion score ([3]; […] cream topical, day 6): 1.8 ± 1.8
average lesion score ([3]; […] cream topical, day 7): 2.2 ± 1.8
average lesion score ([3]; […] cream topical, day 8): 2.7 ± 1.7
average lesion score ([3]; […] cream topical, day 9): 2.4 ± 1.9
average lesion score ([3]; […] cream topical, day 10): 2.6 ± 1.7
average lesion score ([3]; […] cream topical, day 11): 2.6 ± 1.7
average lesion score ([3]; […] cream topical, day 12): 2.6 ± 1.7
average lesion score ([3]; […] cream topical, day 13): 2.6 ± 1.7
average lesion score ([3]; […] cream topical, day 14): 2.6 ± 1.7
activity in vaginitis model, second experiment ([3]; cream topical): weak, but not statistically significant, activity
Mean Day to Death ([3]; virus infected, AM-285 1% dietary): 6.0 ± 0.0
Average CPE ([4]; 5 mg/ml): 2.8
Average CPE ([4]; 10 mg/ml): 0.5
metabolised ([5]; a2058 cells): 13%
metabolised ([5]; du 145 cells): 76%
metabolised ([5]; me180 cells): 85%
metabolised ([5]; vero cells): 68%
CC50 [6]: 5790 µg/mL (≈ 40.4 mM)
% Rate of Creatine (creatine kinase [7]): 46%
Δ in Absorbance/min (creatine kinase [7]): 0.54
CC50 (in vitro [8]): > 4000 µg/mL
effect on plaquing efficiency (HSV-1; FIG. 9): reduced the plaquing efficiency
number of plaques (HSV-1; second experiment, 4 mg/ml (755 at 0 mg/ml)): 120
tolerance of dietary cyclocreatine [9]: without significant mortality
TI50 (CD50 ÷ ED50) (HCMV, strain AD-169; Hs-68 cells, Table 5): greater than 6.2
TI50 (CD50 ÷ ED50) (HCMV, strain AD-169; Hs-68 cells, Table 5, listed as AM-285): > 6.2
# Plaques (HCMV, strain AD-169; Hs-68 cells, AM-285 62.5 μg/ml, virus control 74.2 ± 8.6): 71
# Plaques (HCMV, strain AD-169; Hs-68 cells, AM-285 125 μg/ml, virus control 74.2 ± 8.6): 65
# Plaques (HCMV, strain AD-169; Hs-68 cells, AM-285 260 μg/ml, virus control 74.2 ± 8.6): 87
# Plaques (HCMV, strain AD-169; Hs-68 cells, AM-285 500 μg/ml, virus control 74.2 ± 8.6): 41
# Plaques (HCMV, strain AD-169; Hs-68 cells, AM-285 1000 μg/ml, virus control 74.2 ± 8.6): 19.5
# Plaques (HCMV, strain AD-169; Hs-68 cells, AM-285 2000 μg/ml, virus control 74.2 ± 8.6): 1.5
# Plaques (HCMV, strain AD-169; Hs-68 cells, AM-285 4000 μg/ml, virus control 74.2 ± 8.6): 0
inhibition at 260 µg/mL (HCMV, strain AD-169; Human betaherpesvirus 5, AD169, Hs68, read-out: % Reduction): 0%
EC50 (HCMV, strain AD-169; Human betaherpesvirus 5, AD169, Hs68, Hs-68 cells, Table 5): 647 µg/mL (≈ 4.52 mM)
inhibition at 62.5 µg/mL (HCMV, strain AD-169; Human betaherpesvirus 5, AD169, Hs68, Hs-68 cells, AM-285 62.5 μg/ml): 0%
inhibition at 125 µg/mL (HCMV, strain AD-169; Human betaherpesvirus 5, AD169, Hs68, Hs-68 cells, AM-285 125 μg/ml): 0%
inhibition at 500 µg/mL (HCMV, strain AD-169; Human betaherpesvirus 5, AD169, Hs68, Hs-68 cells, AM-285 500 μg/ml): 45%
inhibition at 1000 µg/mL (HCMV, strain AD-169; Human betaherpesvirus 5, AD169, Hs68, Hs-68 cells, AM-285 1000 μg/ml): 74%
inhibition at 2000 µg/mL (HCMV, strain AD-169; Human betaherpesvirus 5, AD169, Hs68, Hs-68 cells, AM-285 2000 μg/ml): 98%
inhibition at 4000 µg/mL (HCMV, strain AD-169; Human betaherpesvirus 5, AD169, Hs68, Hs-68 cells, AM-285 4000 μg/ml): 100%
EC50 (HCMV, strain AD-169; Human betaherpesvirus 5, AD169, MRC5, MRC-5 cells, Table 4): 610 µg/mL (≈ 4.26 mM)
inhibition at 62.5 µg/mL (HCMV, strain AD-169; Human betaherpesvirus 5, AD169, MRC5, MRC-5 cells, AM 285 62.5 μg/ml): 0%
inhibition at 125 µg/mL (HCMV, strain AD-169; Human betaherpesvirus 5, AD169, MRC5, MRC-5 cells, AM 285 125 μg/ml): 0%
inhibition at 250 µg/mL (HCMV, strain AD-169; Human betaherpesvirus 5, AD169, MRC5, MRC-5 cells, AM 285 250 μg/ml): 0%
inhibition at 500 µg/mL (HCMV, strain AD-169; Human betaherpesvirus 5, AD169, MRC5, MRC-5 cells, AM 285 500 μg/ml): 54%
inhibition at 1000 µg/mL (HCMV, strain AD-169; Human betaherpesvirus 5, AD169, MRC5, MRC-5 cells, AM 285 1000 μg/ml): 75%
inhibition at 2000 µg/mL (HCMV, strain AD-169; Human betaherpesvirus 5, AD169, MRC5, MRC-5 cells, AM 285 2000 μg/ml): 100%
inhibition at 4000 µg/mL (HCMV, strain AD-169; Human betaherpesvirus 5, AD169, MRC5, MRC-5 cells, AM 285 4000 μg/ml): 100%
TI50 (CD50 ÷ ED50) (HCMV, strain AD-169; MRC-5 cells, Table 4): greater than 6.5
TI50 (CD50 ÷ ED50) (HCMV, strain AD-169; MRC-5 cells, Table 4, listed as AM 285): > 6.5
# Plaques (HCMV, strain AD-169; MRC-5 cells, AM 285 62.5 μg/ml, virus control 26.4 ± 5.2): 25
# Plaques (HCMV, strain AD-169; MRC-5 cells, AM 285 125 μg/ml, virus control 26.4 ± 5.2): 26
# Plaques (HCMV, strain AD-169; MRC-5 cells, AM 285 250 μg/ml, virus control 26.4 ± 5.2): 23
# Plaques (HCMV, strain AD-169; MRC-5 cells, AM 285 500 μg/ml, virus control 26.4 ± 5.2): 12
# Plaques (HCMV, strain AD-169; MRC-5 cells, AM 285 1000 μg/ml, virus control 26.4 ± 5.2): 6
# Plaques (HCMV, strain AD-169; MRC-5 cells, AM 285 2000 μg/ml, virus control 26.4 ± 5.2): 0
# Plaques (HCMV, strain AD-169; MRC-5 cells, AM 285 4000 μg/ml, virus control 26.4 ± 5.2): 0
